Patent US20070161550A1, “Antiviral compositions which inhibit paramyxovirus infection” (priority 2003, published 2007)

Key:
[1] = system: RSV A2; assay: Inhibition of virus infectivity in vivo, lung virus titers in BALB/c mice; details: for reduced infectivity, fold: co-administration with RSV (Table 16); for inhibition of RSV infection in vivo (in words): BALB/c mouse model
Method: Inhibition of virus infectivity in vivo. […] All administrations were intranasal (0.05 ml) and performed under injected anesthesia (60 mg ketamine/kg and 2.5 mg xylazine/kg (The Butler Co.; Dublin Ohio)). Four days later the lungs were removed, homogenized, clarified by low speed centrifugation, snap frozen, and stored at −70° C. until plaque assays were performed using HEp-2 cell monolayers (Hancock et al. 1996). All animals were housed in a facility accredited by the American Association for Accreditation of Laboratory Animal Care.
(§1) Plaque assay. Virus plaques were visualized as previously described (Hancock et al. 1996) using anti-F protein (L4) mAb (Paradiso et al., 1991; Walsh and Hruska, 1983). Thereafter, cells were rinsed with blotto blocking agent (PBS, 5% powdered milk) and incubated with horseradish peroxidase-conjugated goat anti-mouse IgG (Kirkegaard and Perry Laboratories, Inc.; Gaithersburg, Md.). Bound antibody was detected using 0.05% 4-chloro-1-naphtol containing 0.1% H2O2 in PBS. After enumeration of plaques, the mean percent infectivity (±1 standard deviation of triplicate wells) was calculated relative to monolayers exposed to virus in culture medium alone without chemokine or anti-chemokine receptor antibody.

[2] = system: HEp-2 cells; assay: Binding of biotinylated CCL5 peptides to HEp-2 cell monolayers (ELISA); parameters: species or system human; details: FIG. 3, viable HEp-2 cells at 4° C.
Method: Interaction of CCL5 peptides with HEp-2 cells. An ELISA was used to assess the relative binding of synthetic peptides to HEp-2 cell monolayers. In brief, 96-well plates (Falcon) were seeded with 3×10^4 HEp-2 cells per well in 0.2 ml of complete medium. After overnight incubation (37° C., 5% CO2), the monolayers were cooled on ice for approximately 15 minutes. The biotinylated peptides were added to duplicate wells in ascending doses from 0.49 μg to 500 μg per ml DMEM (supplemented with 1% FBS, 2% penicillin/streptomycin, and 2 mM L-glutamine) and incubated at 4° C. for 1 hour. The monolayers were then fixed (20 minutes at RT) with 80% methanol (J T Baker; Phillipsburg, N.J.). […] Thereafter, the monolayers were incubated (1 hour at RT) with streptavidin-HRP (Zymed; San Francisco, Calif.). The wells were developed with TMB One-Step Substrate Solution (DAKO; Carpinteria, Calif.). Optical density was determined (450 nm, reference at 550 nm) with a Molecular Devices Versamax microplate reader (Sunnyvale, Calif.).

[3] = system: RSV A2; assay: Inhibition of RSV infectivity in vitro, plaque assay on HEp-2 cell monolayers; format: cell-based, respiratory syncytial virus (RSV); details: for effect on RSV infectivity (in words): prior exposure (1 hour) of HEp-2 cells to recombinant chemokine, up to 10 μg/ml
Method: Inhibition of virus infectivity in vitro. HEp-2 cell monolayers were grown in 96-well tissue culture plates (Falcon, Becton Dickson and Co.; Franklin Lakes, N.J.) with complete medium. The monolayers were pre-treated for 1 hour at 4° C. or 37° C. in triplicate wells with the indicated amounts of recombinant chemokine or anti-chemokine receptor antibody. After removal of chemokine or antibody, the monolayers were infected 1 hour at the same temperature with the denoted wild type or mutant RSV strain and then overlaid with 2% Sephadex (Amersham Biosciences; Piscataway, N.J.). Anti-viral activity was also assessed 1 hour after the cells were infected, or following simultaneous exposure of the monolayers to virus in a 1:1 mixture with the indicated doses of chemokines or CCL5 peptides. The inhibitory properties of the anti-chemokine receptor antibodies were tested alone or in combination at doses ranging from 5 to 100 μg/ml culture medium.
as §1

[4] = Table 16 Exp. 1, 250 μg/dose, simultaneously admixed with RSV A2, four days
[5] = all experiments at the 500 μg/dose
[6] = Table 16 Exp. 1, 500 μg/dose, simultaneously admixed with RSV A2, intranasal, lungs four days later
[7] = Table 17, 500 μg, Simultaneous with RSV A2, four days
[8] = Table 10, 1 μg/ml, exposed 1 hour before infection, plaques after 3 days
[9] = Table 10, 5 μg/ml, exposed 1 hour before infection, plaques after 3 days
[10] = Table 10, 10 μg/ml, exposed 1 hour before infection, plaques after 3 days, relative to control wells (100%)
[11] = Table 11, 1 μg/ml, exposed 1 hour before infection, plaques after 3 days
[12] = Table 11, 5 μg/ml, exposed 1 hour before infection, plaques after 3 days
[13] = Table 11, 10 μg/ml, exposed 1 hour before infection, plaques after 3 days
[14] = Table 12, 10 μg/ml, 1 hour after removal of RSV A2 (POST)
[15] = Table 12, 10 μg/ml, 1 hour prior to infection (PRE)

**Q.** Which “RSV/Gram Lung Tissue (log10)” value [1, 4] does the source give for “EKKWVREYINSLEMS (listed as Homo sapiens) [Peptide 9, CCL5 amino acids 54-68]” here?
**A.** The value was 3.7 ± 0.1 log10.

**Q.** And the “average reduction in virus load” value [1, 5]?
**A.** Its value is 1.4 log10.

**Q.** And the “reduced infectivity, fold” value [1]?
**A.** The value was “approximately 10 fold”.

**Q.** For NC(=O)CN(CC(N)=O)S(=O)(=O)c1cccc(Nc2nc(Nc3cccc(S(=O)(=O)N(CC(N)=O)CC(N)=O)c3)nc(Nc3ccc(-c4ccc(Nc5nc(Nc6cccc(S(=O)(=O)N(CC(N)=O)CC(N)=O)c6)nc(Nc6cccc(S(=O)(=O)N(CC(N)=O)CC(N)=O)c6)n5)cc4S(=O)(=O)O)c(S(=O)(=O)O)c3)n2)c1 [RFI-641, reference compound], which “inhibition of RSV infection in vivo (in words)” value [1] is on record?
**A.** The value was “inhibitory against RSV infection”.

**Q.** And the “RSV/Gram Lung Tissue (log10)” value ([1]; Table 16 Exp. 1, 25 μg/dose, simultaneously admixed with RSV A2, four days)?
**A.** Its value is 2.7 ± 0.2 log10.

**Q.** And the “RSV/Gram Lung Tissue (log10)” value ([1]; Table 16 Exp. 2, 25 μg/dose, simultaneously admixed with RSV A2, four days)?
**A.** Its value is 2.7 ± 0.3 log10.

**Q.** Which “RSV/Gram Lung Tissue (log10)” value [1, 6] does the source give for “TRKNRQVCANPEKKW (listed as Homo sapiens) [Peptide 7, CCL5 amino acids 43-57]” here?
**A.** Its value is 4.6 ± 0.1 log10.

**Q.** And the “RSV/Gram Lung Tissue (log10)” value [1, 7]?
**A.** The value was 3.8 ± 0.1 log10.

**Q.** What about the “average reduction in virus load” value [1, 5] of the same molecule?
**A.** The value was 1.1 log10.

**Q.** How did the “RSV/Gram Lung Tissue (log10)” value [1, 6] turn out when “CANPEKKWVREYINS (listed as Homo sapiens) [Peptide 8, CCL5 amino acids 50-64]” was run?
**A.** Its value is 3.6 ± 0.03 log10.

**Q.** And the “average reduction in virus load” value [1, 5]?
**A.** Its value is 1.0 log10.

**Q.** And the “reduced infectivity, fold” value [1]?
**A.** Its value is “approximately 10 fold”.

**Q.** With “SPYSSDTTPCCFAYI (listed as Homo sapiens) [Peptide 1, CCL5 amino acids 1-15]” as the molecule, how does the “average reduction in virus load” value ([1]; 300 μg or more, five experiments) read?
**A.** Its value is 2.4 log10.

**Q.** And the “inhibition of RSV infection in vivo (in words)” value [1]?
**A.** Its value is “most inhibitory in vivo”.

**Q.** And the “RSV/Gram Lung Tissue (log10)” value ([1]; Table 16 Exp. 1, 125 μg/dose, simultaneously admixed with RSV A2, four days)?
**A.** The value was 4.6 ± 0.2 log10.

**Q.** And the “RSV/Gram Lung Tissue (log10)” value [1, 4]?
**A.** The value was 4.3 ± 0.2 log10.

**Q.** And the “RSV/Gram Lung Tissue (log10)” value [1, 6]?
**A.** The value was 1.8 ± 0.1 log10.

**Q.** And the “RSV/Gram Lung Tissue (log10)” value ([1]; Table 16 Exp. 2, 300 μg/dose, simultaneously admixed with RSV A2, four days)?
**A.** Its value is 4.0 ± 0.1 log10.

**Q.** What about the “RSV/Gram Lung Tissue (log10)” value ([1]; Table 16 Exp. 2, 400 μg/dose, simultaneously admixed with RSV A2, four days) of the same molecule?
**A.** The value was 3.8 ± 0.1 log10.

**Q.** And the “RSV/Gram Lung Tissue (log10)” value ([1]; Table 16 Exp. 2, 500 μg/dose, simultaneously admixed with RSV A2, four days)?
**A.** The value was 3.1 ± 0.1 log10.

**Q.** And the “RSV/Gram Lung Tissue (log10)” value ([1]; Table 17, 500 μg, 1 hour after infection (Post), four days)?
**A.** Its value is 5.3 ± 0.2 log10.

**Q.** What about the “RSV/Gram Lung Tissue (log10)” value ([1]; Table 17, 500 μg, 1 hour before infection (Pre), four days) of the same molecule?
**A.** The value was 3.5 ± 0.6 log10.

**Q.** What about the “RSV/Gram Lung Tissue (log10)” value [1, 7] of the same molecule?
**A.** Its value is 1.9 ± 0.2 log10.

**Q.** And the “virus load diminished, fold” value ([1]; administered 1 hour before infection)?
**A.** Its value is “more than 50 fold”.

**Q.** And the “binding to the epithelial cell monolayer (in words)” value [2]?
**A.** Its value is “readily bound to the epithelial cell monolayer”.

**Q.** With “AHIKEYFYTSGKCSN (listed as Homo sapiens) [Peptide 4, CCL5 amino acids 22-36]” as the molecule, how does the “average reduction in virus load” value [1, 5] read?
**A.** The value was 1.2 log10.

**Q.** For “PAVVFVTRKNRQVC (listed as Homo sapiens) [Peptide 6, CCL5 amino acids 37-50]”, which “average reduction in virus load” value [1, 5] is on record?
**A.** Its value is 0.5 log10.

**Q.** Which “average reduction in virus load” value [1, 5] does the source give for “TPCCFAYIARPLPRA (listed as Homo sapiens) [Peptide 2, CCL5 amino acids 8-22]” here?
**A.** Its value is 0.9 log10.

**Q.** Which results are given for “CCL11: recombinant human chemokine CCL11 (eotaxin)”?
**A.** Percent Infectivity [3, 8]: 94.4 ± 4.8%; Percent Infectivity [3, 9]: 93.1 ± 12.7%; Percent Infectivity [3, 10]: 94.4 ± 4.8%; effect on RSV infectivity (in words) [3]: did not impair RSV infectivity

B1: CCL3: recombinant human chemokine CCL3 (MIP-1α) (protein, UniProt P10147 24-92, looked up)
C-C motif chemokine 3: SLAADTPTACCFSYTSRQIPQNFIADYFETSSQCSKPGVIFLTKRSRQVCADPSEEWVQKYVSDLELSA
**Q.** How did the “Percent Infectivity” value [3, 8] turn out when B1 was run?
**A.** The value was 95.8 ± 11.0%.

**Q.** What about the “Percent Infectivity” value [3, 9] of the same molecule?
**A.** The value was 97.2 ± 8.7%.

**Q.** And the “Percent Infectivity” value [3, 10]?
**A.** The value was 86.1 ± 2.4%.

**Q.** What about the “Percent Infectivity” value [3, 11] of the same molecule?
**A.** The value was 103.0 ± 3.0%.

**Q.** What about the “Percent Infectivity” value [3, 12] of the same molecule?
**A.** The value was 98.0 ± 1.0%.

**Q.** And the “Percent Infectivity” value [3, 13]?
**A.** The value was 91.0 ± 5.0%.

**Q.** And the “Percent Infectivity” value [3, 14]?
**A.** The value was 104 ± 7%.

**Q.** And the “Percent Infectivity” value [3, 15]?
**A.** Its value is 91 ± 10%.

**Q.** What about the “effect on RSV infectivity (in words)” value [3] of the same molecule?
**A.** Its value is “did not impair infectivity”.

B2: CCL8: recombinant human chemokine CCL8 (MCP-2) (protein, UniProt P80075 24-99, looked up)
C-C motif chemokine 8: QPDSVSIPITCCFNVINRKIPIQRLESYTRITNIQCPKEAVIFKTKRGKEVCADPKERWVRDSMKHLDQIFQNLKP
**Q.** With B2 as the molecule, how does the “Percent Infectivity” value [3, 8] read?
**A.** Its value is 88.9 ± 6.4%.

**Q.** And the “Percent Infectivity” value [3, 9]?
**A.** The value was 100.0 ± 0.0%.

**Q.** And the “Percent Infectivity” value [3, 10]?
**A.** The value was 94.4 ± 10.5%.

**Q.** And the “effect on RSV infectivity (in words)” value [3]?
**A.** Its value is “did not impair RSV infectivity”.

B3: CCL4: recombinant human chemokine CCL4 (MIP-1β) (protein, UniProt P13236 24-92, looked up)
C-C motif chemokine 4: APMGSDPPTACCFSYTARKLPRNFVVDYYETSSLCSQPAVVFQTKRSKQVCADPSESWVQEYVYDLELN
**Q.** Which “Percent Infectivity” value [3, 11] does the source give for B3 here?
**A.** The value was 104.0 ± 4.0%.

**Q.** And the “Percent Infectivity” value [3, 12]?
**A.** Its value is 99.0 ± 9.0%.

**Q.** And the “Percent Infectivity” value [3, 13]?
**A.** Its value is 98.0 ± 5.0%.

**Q.** And the “effect on RSV infectivity (in words)” value [3]?
**A.** Its value is “did not impair infectivity”.

B4: CCL15: recombinant human chemokine CCL15 (MIP-1δ) (protein, UniProt Q16663 22-113, looked up)
C-C motif chemokine 15: QFTNDAETELMMSKLPLENPVVLNSFHFAADCCTSYISQSIPCSLMKSYFETSSECSKPGVIFLTKKGRQVCAKPSGPGVQDCMKKLKPYSI
**Q.** What does the source list for B4?
**A.** Percent Infectivity [3, 14]: 93 ± 4%; Percent Infectivity [3, 15]: 97 ± 8%; effect on RSV infectivity (in words) [3]: did not impair RSV infectivity
